Among the data in ChEMBL document CHEMBL1201862, “PubChem BioAssay data set” (2004) are AC50, IC50 and EC50 values, retold here.

The target in assay [1] is Cytochrome P450 2C9 (Homo sapiens, UniProt P11712). The conditions noted are these: Potency.
Assay [2] is described as follows: glucagon-like peptide-1 release potency in STC-1, concentration-response, half-maximal inhibitory concentration in the STC-1 line (AID 1117345). The assay is classed as functional, cell-based.
A short description of assay [3]: Potency on glucagon-like peptide 1 release, dose-response in NCI-H716 cell line, half maximal inhibitory concentration (AID 1117344). It counts as functional, cell-based.
Assay [4] addresses T1, Ubiquitin-conjugating enzyme E2 N (Homo sapiens, UniProt P61088).
T1 sequence (P61088 whole entry): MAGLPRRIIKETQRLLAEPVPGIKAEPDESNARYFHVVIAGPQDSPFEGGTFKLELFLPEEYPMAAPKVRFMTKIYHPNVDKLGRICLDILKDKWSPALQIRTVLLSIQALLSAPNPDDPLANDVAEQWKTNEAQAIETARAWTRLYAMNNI
The assay is classed as functional.

Assay [5] can be described thus: HPDE-C7 pancreatic duct cell viability loss – fluorescence, HTS (AID 430). The assay is classed as functional, cell-based. The conditions noted are these: Homo sapiens.
Assay [6] is described as follows: viability loss of HPDE-C7K cells – cell-based, fluorescence, HTS, primary screen (AID 431). The assay is classed as functional. The conditions noted are these: Homo sapiens.
A short description of assay [7]: growth inhibition of yeast DHODH-expressing 3D7 parasites – SYBR Green, dry powder samples, dose response (AID 1159570).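 Also: parasite growth measured after 72 hours of compound exposure.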 It counts as functional, cell-based.
Assay [8] in a line: growth inhibition of PfATP4-mutant resistant parasites – NITD609-resistant line, SYBR Green, dry powder, dose response (AID 1159571).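 Also: parasites synchronized at ring stage by sorbitol before testing.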 It counts as functional, cell-based.
Assay [9] can be described thus: toxicity to human HepG2 hepatoma cells – cell-based, plate reader, dry powder samples, cytotoxicity control, dose response (AID 1159569).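 Also: inhibitor potency with signal falling toward the positive control level.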 It counts as functional.
Assay [10] is described as follows: P. falciparum Dd2 growth inhibitors, dose response, SYBR Green, cherry-picked samples (AID 1159567). It counts as functional, cell-based.
The nature of assay [11]: Dd2 malaria parasite growth inhibition potency – SYBR Green, dry powder samples, dose response (AID 1159566).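 Also: potency for growth inhibition with lower SYBR green DNA signal.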 The assay is classed as functional, cell-based.
A short description of assay [12]: non-specific 3'UTR reporter inhibition in Clone20-Shn3RL – cell-based, Renilla luciferase, cherry-picked, counter-screen for Shn3 inhibitor project, dose response (AID 624133). The assay is classed as functional. (In general: The purpose of a counterscreen is to sort out artefacts and off-target activity.)
Assay [13] can be described thus: loss of viability in HepG2 cells – cell-based, CellTiter-Glo, cherry-picked, cytotoxicity control for Shn3 inhibitor project, dose response (AID 624134). The assay is classed as functional.
Assay [14] in a line: reduction of Shn3 3'UTR-driven luciferase in osteoblasts – cell-based, Clone20 osteoblasts, firefly luciferase, cherry-picked, dose response (AID 624132).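 Also: firefly luciferase luminescence from reporter carrying the Shn3 3'UTR in osteoblasts.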 It counts as functional.
Assay [15] deals with T2, Replicative DNA helicase DnaB (Mycobacterium tuberculosis, UniProt P9WMR3).
T2 sequence (P9WMR3 whole entry): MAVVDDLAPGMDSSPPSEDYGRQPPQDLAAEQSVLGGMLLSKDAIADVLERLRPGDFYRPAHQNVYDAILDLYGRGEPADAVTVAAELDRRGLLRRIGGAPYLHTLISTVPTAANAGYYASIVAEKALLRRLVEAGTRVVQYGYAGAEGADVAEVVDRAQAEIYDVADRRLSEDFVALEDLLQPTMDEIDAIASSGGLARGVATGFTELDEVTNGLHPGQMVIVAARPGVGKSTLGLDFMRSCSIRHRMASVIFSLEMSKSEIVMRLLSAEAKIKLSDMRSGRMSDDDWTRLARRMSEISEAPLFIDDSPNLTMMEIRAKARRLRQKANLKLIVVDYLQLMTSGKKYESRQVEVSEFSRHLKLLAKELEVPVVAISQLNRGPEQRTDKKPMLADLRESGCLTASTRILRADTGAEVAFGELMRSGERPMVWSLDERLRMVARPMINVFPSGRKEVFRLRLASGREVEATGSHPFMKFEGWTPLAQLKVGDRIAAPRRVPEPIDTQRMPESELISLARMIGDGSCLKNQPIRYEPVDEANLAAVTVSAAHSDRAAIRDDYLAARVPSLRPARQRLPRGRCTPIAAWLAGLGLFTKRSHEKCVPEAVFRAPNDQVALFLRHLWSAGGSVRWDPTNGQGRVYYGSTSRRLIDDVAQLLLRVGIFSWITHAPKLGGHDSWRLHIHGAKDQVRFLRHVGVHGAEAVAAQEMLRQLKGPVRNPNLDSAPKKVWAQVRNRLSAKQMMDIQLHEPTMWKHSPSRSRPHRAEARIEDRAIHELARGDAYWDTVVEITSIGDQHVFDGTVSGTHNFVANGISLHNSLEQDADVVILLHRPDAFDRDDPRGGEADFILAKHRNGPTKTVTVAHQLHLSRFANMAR
The assay is described as follows: DnaB intein splicing inhibitors, dose response, biochemical, cell-free fluorescence (AID 449749). The assay is classed as functional.

Assay [16] can be described thus: Luminescence Cell-Based Dose Retest to Confirm Inhibitors of Cancer Stem Cells. [Related pubchem assays (depositor defined):AID2717, AID2721]. The conditions noted are these: Homo sapiens. The assay is classed as functional.
Assay [17] has as its target T3, Protein RecA (Mycobacterium tuberculosis, UniProt P9WHJ3).
T3 sequence (P9WHJ3 whole entry): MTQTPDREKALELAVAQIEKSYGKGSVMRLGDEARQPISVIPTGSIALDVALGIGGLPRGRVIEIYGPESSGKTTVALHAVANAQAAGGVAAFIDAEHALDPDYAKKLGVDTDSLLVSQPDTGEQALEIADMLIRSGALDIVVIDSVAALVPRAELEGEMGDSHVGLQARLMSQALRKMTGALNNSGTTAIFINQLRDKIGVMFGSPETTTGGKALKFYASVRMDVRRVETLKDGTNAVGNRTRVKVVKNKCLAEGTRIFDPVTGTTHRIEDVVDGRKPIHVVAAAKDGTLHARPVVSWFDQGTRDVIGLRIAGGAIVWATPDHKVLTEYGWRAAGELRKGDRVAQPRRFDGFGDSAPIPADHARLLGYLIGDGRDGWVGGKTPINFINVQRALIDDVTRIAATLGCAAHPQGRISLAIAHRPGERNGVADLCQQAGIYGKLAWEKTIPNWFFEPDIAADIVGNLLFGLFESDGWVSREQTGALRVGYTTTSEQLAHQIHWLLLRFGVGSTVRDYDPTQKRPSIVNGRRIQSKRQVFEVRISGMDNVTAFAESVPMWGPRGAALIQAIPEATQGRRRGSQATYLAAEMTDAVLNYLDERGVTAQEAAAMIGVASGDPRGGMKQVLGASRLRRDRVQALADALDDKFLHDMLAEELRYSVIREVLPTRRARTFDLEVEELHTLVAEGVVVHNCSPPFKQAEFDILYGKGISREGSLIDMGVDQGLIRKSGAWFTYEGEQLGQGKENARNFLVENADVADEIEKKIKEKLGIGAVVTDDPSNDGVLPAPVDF
The assay is described as follows: Fluorescence Cell-Free Homogeneous Dose Retest to Identify Inhibitors of RecA-Intein Splicing Activity. [Related pubchem assays (depositor defined):AID2097, AID2223, AID489010, AID492950]. The assay is classed as functional.

Assay [18] deals with Cytochrome P450 2C19 (Homo sapiens, UniProt P33261). As to the kind of experiment: qHTS Assay for Inhibitors and Substrates of Cytochrome P450 2C19. [Related pubchem assays: 410 ]. It counts as ADME. As to conditions: read-out: Potency. (In general: Quantitative high-throughput screening tests each substance at several concentrations.)
Cytochrome P450 2C19, sequence (P33261 whole entry): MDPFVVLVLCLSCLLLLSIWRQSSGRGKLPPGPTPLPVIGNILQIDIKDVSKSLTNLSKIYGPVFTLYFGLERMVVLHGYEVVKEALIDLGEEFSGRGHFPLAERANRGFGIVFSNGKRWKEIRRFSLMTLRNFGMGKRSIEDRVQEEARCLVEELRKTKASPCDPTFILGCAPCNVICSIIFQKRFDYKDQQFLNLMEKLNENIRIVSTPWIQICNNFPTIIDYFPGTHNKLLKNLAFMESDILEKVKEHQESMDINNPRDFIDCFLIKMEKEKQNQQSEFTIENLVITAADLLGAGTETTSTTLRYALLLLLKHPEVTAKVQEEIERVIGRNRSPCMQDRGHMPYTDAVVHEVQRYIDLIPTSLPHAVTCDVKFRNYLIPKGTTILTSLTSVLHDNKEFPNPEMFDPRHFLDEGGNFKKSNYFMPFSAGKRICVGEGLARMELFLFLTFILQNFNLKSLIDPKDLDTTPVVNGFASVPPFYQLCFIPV

Calls of active or inactive are those of the source. Where only a bound is given, the exact number is not on record here.

Cytochrome P450 2C9, sequence (P11712 whole entry): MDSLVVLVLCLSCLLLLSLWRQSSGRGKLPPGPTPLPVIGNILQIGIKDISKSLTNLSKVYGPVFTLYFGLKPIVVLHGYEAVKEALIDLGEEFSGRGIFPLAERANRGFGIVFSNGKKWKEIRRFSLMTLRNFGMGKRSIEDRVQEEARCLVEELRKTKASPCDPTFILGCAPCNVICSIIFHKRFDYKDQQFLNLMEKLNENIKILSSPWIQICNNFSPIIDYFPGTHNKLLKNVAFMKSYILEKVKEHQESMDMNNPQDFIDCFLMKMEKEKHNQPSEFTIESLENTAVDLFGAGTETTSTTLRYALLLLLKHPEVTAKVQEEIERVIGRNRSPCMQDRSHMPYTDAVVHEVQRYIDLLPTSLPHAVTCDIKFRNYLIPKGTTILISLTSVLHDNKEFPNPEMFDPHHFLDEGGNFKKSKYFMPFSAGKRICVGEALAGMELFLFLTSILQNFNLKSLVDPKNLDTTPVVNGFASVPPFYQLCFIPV

In the case of `NCCC[C@@H](CC(=O)N[C@@H]1CCCC[C@H]1C(=O)N[C@H](CC(=O)N[C@@H](CCC(=O)O)CC(=O)O)Cc1ccccc1)NC(=O)C[C@H](CO)NC(=O)[C@@H]1CNCC[C@H]1N`, in assay [1], the AC50 is 39.8 µM (inconclusive).

`CN(C(=O)CN(CCO)CC(=O)N(C)C(C)(C)Cc1ccccc1)C(C)(C)Cc1ccccc1` [OXETHAZAINE]: the IC50 (usually the concentration that inhibits the measured activity by half) in assay [2] is > 40 µM (inactive); in [3] it was 25.1 µM (inactive); in assay [4], > 20 µM (inactive).

For `CC1(C)Cc2c(C#N)c(NCc3ccco3)nc(-c3ccco3)c2CO1`, the values for the EC50 in assay [5] and in assay [6] were 10.1 µM (active) and > 20 µM (not active), respectively.

Regarding `O=C(c1cccnc1)N1CC(=O)N2[C@H](C1)[C@@H](c1ccc(-c3cccnc3)cc1)[C@@H]2CO`, the AC50 in assay [7] is 0.938 µM (active); in [8], 0.693 µM (active); in [9], > 100 µM (inactive); in assay [10], 0.497 µM (active); in assay [11], 0.553 µM (active).

As to `CC(C)C[C@H](N)c1nnc(S(=O)(=O)Cc2ccc(F)cc2)o1`, the AC50 was 22.1 µM (active) in [12]; 27.4 µM (active) in assay [13]; 9.02 µM (active) in assay [14]; 1.4 µM (active) in assay [15]; 4.78 µM (active) in assay [16]. The EC50 (as a rule, the concentration giving half of the maximal effect) in [5] is 8.98 µM (active); in [6], 7.91 µM (active); in assay [17], 25.7 µM (active).

For `O=C(Nc1ccc(S(=O)(=O)N2CCOCC2)cc1)c1cc(Cl)ccc1NS(=O)(=O)c1ccc(Cl)s1`, the IC50 in assay [2] and in assay [3] was > 40 µM (inactive) throughout.

As to `NCCC[C@@H](CC(=O)N[C@@H]1CCNC[C@H]1C(=O)N[C@H](CC(=O)N[C@@H](CCC(=O)O)CC(=O)O)Cc1ccccc1)NC(=O)C[C@H](CO)NC(=O)[C@@H]1CNCC[C@H]1N`, the AC50 in assay [18] and in assay [1] was 15.8 µM (inconclusive) each time.
